Several values for one entry are separate records, joined by “and”; a condition that tells them apart may be missing. Equal entries are not always repeated.
Legend:
[1] = Pharmacokinetics of BC-4 and BC-5 in mouse plasma and brain; assay type: in vivo; conditions: Balb/c mice, single oral dose 5 mg/kg
Description: Pharmacokinetics of BC-4 and BC-5 were compared to BC-1. Pharmacokinetics were assessed in Balb/c mice administered a single oral dose of 5 mg/kg of the indicated compound (Tables 11 and 12).

[2] = Pharmacokinetics of BC-2 and BC-3 in mouse plasma and brain; assay type: in vivo, mice
Description: Pharmacokinetics were assessed in mice administered a single oral dose of 5 mg/kg of the indicated compound (Tables 9 and 10).

GL261 = test: GBM cell viability, Alamar blue, 72 hours; assay type: cell-based; conditions: Mus musculus, GL261, established glioma cell line
Description: (§1) The effect of VMY-BC-1 was tested on a panel of GBM cell lines. […] In this study 100 μM was the highest drug concentration used, with 3-fold dilution for a 10 dose response curve.

GBM4 = test: GBM cell viability, Alamar blue, 72 hours; assay type: cell-based; conditions: GBM4, patient-derived cell line
Description: as §1

GBM8 = test: GBM cell viability, Alamar blue, 72 hours; assay type: cell-based; conditions: GBM8, patient-derived cell line
Description: as §1

U87 = test: GBM cell viability, Alamar blue, 72 hours; assay type: cell-based; conditions: Homo sapiens, U-87 MG, U87, established glioma cell line
Description: as §1

U251 = test: GBM cell viability, Alamar blue, 72 hours; assay type: cell-based; conditions: Homo sapiens, U-251, U251, established glioma cell line
Description: as §1

[3] = Brain, single oral dose 5 mg/kg
[4] = Plasma, single oral dose 5 mg/kg
[5] = single oral dose 5 mg/kg, 0 min
[6] = single oral dose 5 mg/kg, 30 min
[7] = single oral dose 5 mg/kg, 60 min
[8] = single oral dose 5 mg/kg, 180 min
[9] = single oral dose 5 mg/kg, 360 min
[10] = single oral dose 5 mg/kg, 900 min
[11] = single oral dose 5 mg/kg, 1440 min

Which results are given for CC=C(c1ccc(OC)cc1)C(CC)c1cc(OC)cc(B(O)O)c1 (racemic) [BC-4]?
Concentrations in plasma vs brain [1]: higher concentrations in plasma than brain; Brain level, Mean (4) ± SE ([1]; 0 min): BQL; Plasma level, Mean (4) ± SE ([1]; 0 min): BQL; Brain level, Mean (4) ± SE ([1]; 30 min): 164 ± 16 ng/g; Plasma level, Mean (4) ± SE ([1]; 30 min): 255 ± 20 ng,/ml; Brain level, Mean (4) ± SE ([1]; 60 min): 139 ± 14 ng/g; Plasma level, Mean (4) ± SE ([1]; 60 min): 163 ± 20 ng,/ml; Brain level, Mean (4) ± SE ([1]; 180 min): BQL; Plasma level, Mean (4) ± SE ([1]; 180 min): 36 ± 6 ng,/ml; Brain level, Mean (4) ± SE ([1]; 360 min): BQL; Plasma level, Mean (4) ± SE ([1]; 360 min): 22 ± 3 ng,/ml; Brain level, Mean (4) ± SE ([1]; 900 min): BQL; Plasma level, Mean (4) ± SE ([1]; 900 min): BQL; Brain level, Mean (4) ± SE ([1]; 1440 min): BQL; Plasma level, Mean (4) ± SE ([1]; 1440 min): BQL; Tmax ([1]; Brain): 30 min; T½ ([1]; Brain): 127 min; terminal elimination rate constant (lambda z) ([1]; Brain): 0.00546 min⁻¹; AUC(0-t) ([1]; Plasma): 25300 ng·min/mL; AUC(inf) ([1]; Plasma): 28300 ng·min/mL; Cmax ([1]; Plasma): 255 ng/mL; Tmax ([1]; Plasma): 30 min; T½ ([1]; Plasma): 94.5 min; terminal elimination rate constant (lambda z) ([1]; Plasma): 0.00734 min⁻¹

What does the source list for CCOc1ccc(/C=C/c2cc(OC)cc(B(O)O)c2)cc1 [BC-2, (E)-(3-(4-ethoxystyryl)-5-methoxyphenyl) Boronic Acid]?
AUC(0-inf) ([2]; mouse, in vivo, po, 5 mg/kg): 2000 ng·h/mL; AUC(inf) ([2]; mouse, in vivo, po, 5 mg/kg): 504000 ng·min/mL; Cmax ([2]; mouse, in vivo, po, 5 mg/kg): 841 ng/mL and 4140 ng/g; Concentration in brain vs plasma ([2]; mouse, in vivo, po, 5 mg/kg): higher concentration in brain than in plasma; Tmax ([2]; mouse, in vivo, po, 5 mg/kg): 60 min; T½ ([2]; mouse, in vivo, po, 5 mg/kg): 54.8 min; concentration at 30 min ([2]; mouse, in vivo, po, 5 mg/kg): 841 ng/mL and 3420 ng/g; concentration at 60 min ([2]; mouse, in vivo, po, 5 mg/kg): 732 ng/mL and 4140 ng/g; concentration at 180 min ([2]; mouse, in vivo, po, 5 mg/kg): 281 ng/mL and 983 ng/g; concentration at 360 min ([2]; mouse, in vivo, po, 5 mg/kg): 43 ng/mL and 94 ng/g; Tmax ([2]; mouse, in vivo, po, 5 mg/kg, Tmax): 30 min; half-life ([2]; mouse, in vivo, po, 5 mg/kg, T½): 72.8 min

With COc1cc(/C=C/c2ccc(F)cc2)cc(B(O)O)c1 [BC-3] as the compound, how does the “Kd (Lambda Z)” value [2, 3] read?
Its value is 0.000342 s⁻¹.

What about the Tmax [2, 3] of the same compound?
The Tmax was 30 min.

What about the T½ [2, 3] of the same compound?
The T½ was 33.8 min.

And the “AUC(0-t)” value [2, 4]?
Its value is 25500 ng·min/mL.

What about the “AUC(inf)” value [2, 4] of the same compound?
The value was 26300 ng·min/mL.

And the Cmax [2, 4]?
The Cmax was 439 ng/mL.

And the “Kd (Lambda Z)” value [2, 4]?
Its value is 0.000358 s⁻¹.

What about the Tmax [2, 4] of the same compound?
Its Tmax is 30 min.

And the T½ [2, 4]?
The T½ was 32.3 min.

What about the “Concentration in brain vs plasma” value ([2]; single oral dose 5 mg/kg) of the same compound?
Its value is “higher concentration in brain than in plasma”.

And the “Brain level, Mean (4) ± SE” value [2, 5]?
The value was “BQL”.

What about the “Plasma level, Mean (4) ± SE” value [2, 5] of the same compound?
The value was “BQL”.

What about the “Brain level, Mean (4) ± SE” value [2, 6] of the same compound?
Its value is 1951 ± 323 ng/g.

And the “Plasma level, Mean (4) ± SE” value [2, 6]?
Its value is 439 ± 67 ng/mL.

And the “Brain level, Mean (4) ± SE” value [2, 7]?
Its value is 1233 ± 219 ng/g.

What about the “Plasma level, Mean (4) ± SE” value [2, 7] of the same compound?
The value was 217 ± 28 ng/mL.

What about the “Brain level, Mean (4) ± SE” value [2, 8] of the same compound?
Its value is 95 ± 26 ng/g.

And the “Plasma level, Mean (4) ± SE” value [2, 8]?
The value was 17 ± 10 ng/mL.

What about the “Brain level, Mean (4) ± SE” value [2, 9] of the same compound?
Its value is “BQL”.

And the “Plasma level, Mean (4) ± SE” value [2, 9]?
The value was “BQL”.

And the “Brain level, Mean (4) ± SE” value [2, 10]?
The value was “BQL”.

What about the “Plasma level, Mean (4) ± SE” value [2, 10] of the same compound?
The value was “BQL”.

What about the “Brain level, Mean (4) ± SE” value [2, 11] of the same compound?
Its value is “BQL”.

What about the “Plasma level, Mean (4) ± SE” value [2, 11] of the same compound?
Its value is “BQL”.

Which results are given for CCC(=C(c1ccccc1)c1ccc(OC)cc1)c1cc(OC)cc(B(O)O)c1 [BC-5]?
Concentrations in plasma vs brain [1]: higher concentrations in plasma than brain; Brain level, Mean (4) ± SE ([1]; 0 min): BQL; Plasma level, Mean (4) ± SE ([1]; 0 min): BQL; Brain level, Mean (4) ± SE ([1]; 30 min): 142 ± 32 ng/g; Plasma level, Mean (4) ± SE ([1]; 30 min): 1599 ± 40 ng,/ml; Brain level, Mean (4) ± SE ([1]; 60 min): 205 ± 39 ng/g; Plasma level, Mean (4) ± SE ([1]; 60 min): 1524 ± 106 ng,/ml; Brain level, Mean (4) ± SE ([1]; 180 min): 105 ± 26 ng/g; Plasma level, Mean (4) ± SE ([1]; 180 min): 742 ± 91 ng,/ml; Brain level, Mean (4) ± SE ([1]; 360 min): 28 ± 6 ng/g; Plasma level, Mean (4) ± SE ([1]; 360 min): 290 ± 35 ng,/ml; Brain level, Mean (4) ± SE ([1]; 900 min): BQL; Plasma level, Mean (4) ± SE ([1]; 900 min): 49 ± 10 ng,/ml; Brain level, Mean (4) ± SE ([1]; 1440 min): BQL; Plasma level, Mean (4) ± SE ([1]; 1440 min): 15 ± 9 ng,/ml; Tmax ([1]; Brain): 60 min; T½ ([1]; Brain): 103 min; terminal elimination rate constant (lambda z) ([1]; Brain): 0.00672 min⁻¹; AUC(0-t) ([1]; Plasma): 376000 ng·min/mL; AUC(inf) ([1]; Plasma): 381000 ng·min/mL; Cmax ([1]; Plasma): 1600 ng/mL; Tmax ([1]; Plasma): 30 min; T½ ([1]; Plasma): 251 min; terminal elimination rate constant (lambda z) ([1]; Plasma): 0.00276 min⁻¹

Which IC50 (GL261) does the source give for Oc1ccc(C=Cc2cc(O)cc(O)c2)cc1 [Resveratrol, resveratrol, reference compound] here?
Its IC50 is 10.6 µM.

What about the IC50 (GBM4) of the same compound?
Its IC50 is 40.6 µM.

And the IC50 (GBM8)?
The IC50 was 26.6 µM.

And the IC50 (U87)?
Its IC50 is 40 µM.

What about the IC50 (U251) of the same compound?
Its IC50 is 12 µM.

What about the “Drug level in plasma and brain, all time points” value ([2]; single oral dose 5 mg/kg) of the same compound?
The value was “below quantification level”.

What about the “Brain level, Mean (4) ± SE” value [2, 5] of the same compound?
Its value is “BQL”.

What about the “Plasma level, Mean (4) ± SE” value [2, 5] of the same compound?
Its value is “BQL”.

What about the “Brain level, Mean (4) ± SE” value [2, 6] of the same compound?
Its value is “BQL”.

What about the “Plasma level, Mean (4) ± SE” value [2, 6] of the same compound?
The value was “BQL”.

And the “Brain level, Mean (4) ± SE” value [2, 7]?
Its value is “BQL”.

What about the “Plasma level, Mean (4) ± SE” value [2, 7] of the same compound?
Its value is “BQL”.

What about the “Brain level, Mean (4) ± SE” value [2, 8] of the same compound?
The value was “BQL”.

What about the “Plasma level, Mean (4) ± SE” value [2, 8] of the same compound?
Its value is “BQL”.

What about the “Brain level, Mean (4) ± SE” value [2, 9] of the same compound?
Its value is “BQL”.

What about the “Plasma level, Mean (4) ± SE” value [2, 9] of the same compound?
Its value is “BQL”.

And the “Brain level, Mean (4) ± SE” value [2, 10]?
The value was “BQL”.

What about the “Plasma level, Mean (4) ± SE” value [2, 10] of the same compound?
The value was “BQL”.

And the “Brain level, Mean (4) ± SE” value [2, 11]?
The value was “BQL”.

What about the “Plasma level, Mean (4) ± SE” value [2, 11] of the same compound?
The value was “BQL”.
